The values that follow come from US5470837A, “5'-vinylhalo-aristeromycin/adenosine analogs and immunosuppressants” (Merrell Dow Pharmaceuticals Inc., priority 1994, dated 1995).

Assay [1] deals with human peripheral blood mononuclear cells. Description: Mitogenic assay: pokeweed mitogen stimulated proliferation ([3H]-thymidine incorporation) of human peripheral blood mononuclear cells. It is filed as cell-based. On the procedure: Cells: Human peripheral blood mononuclear cells were isolated from samples of blood (in 0.01M sodium citrate) using 50 mL LEUKOPREP® separation tubes (Becton Dickenson, Lincoln Park, N.J.). Tubes were centrifuged at room temperature for 15 minutes at 2400 rpm in a swinging bucket rotor. The cells recovered at interface were washed in Dulbecco's PBS and resuspended in RPMI 1640 containing 10% FCS, 5×10^-5 M 2-mercaptoethanol, 2 mM L-glutamine, 1% penicillin-streptomycin and 1 mM HEPES buffer (CM). Mitogenic Assay: Human peripheral blood mononuclear cells (2×10^5) were incubated with pokeweed mitogen at a final concentration of 0.1 μg/mL or Concanavalin A at a final concentration of 1.0 μg/mL in 96 well flat-bottomed microtiter plates (Falcon 3072, Becton Dickinson). Compounds to be tested were added at the initiation of culture. The final volume was 0.2 mL. The cultures were incubated in 95% humidified air/5% CO2 at 37° C. for 2 days (Concanavalin A) or 6 days (Pokeweed mitogen). Eighteen hours before termination of the cultures, each well was pulsed with 1 μCi of [^3 H]-thymidine. Cells from individual wells were harvested onto glass fiber filter paper with an automated multi-sample harvester. Filters were placed in scintillation fluid (Universal Cocktail, ICN Radiochemicals, Irvin, Calif.) and the [^3 H]-thymidine incorporation, in counts per minute (cpm), was measured in a Packard Tri-carb 4640 Scintillation Counter. Peripheral blood mononuclear cells from three individuals were cultured with an optimal concentration of pokeweed mitogen, a T-dependent B-cell mitogen, in the presence of increasing concentrations of (Z)-4',5'-didehydro-5'-deoxy-5'-fluoroadenosine. […] Similar studies were performed culturing human peripheral blood cells with an optimal concentration of Concanavalin A, a potent T-cell mitogen.
(In general: Uptake of a labelled nucleoside into DNA is a usual measure of proliferation.)

For assay [2] the test system is unchanged. In words: Mitogenic assay: Concanavalin A stimulated proliferation ([3H]-thymidine incorporation) of human peripheral blood mononuclear cells. It is filed as cell-based. On the procedure: Cells: Human peripheral blood mononuclear cells were isolated from samples of blood (in 0.01M sodium citrate) using 50 mL LEUKOPREP® separation tubes (Becton Dickenson, Lincoln Park, N.J.). Tubes were centrifuged at room temperature for 15 minutes at 2400 rpm in a swinging bucket rotor. The cells recovered at interface were washed in Dulbecco's PBS and resuspended in RPMI 1640 containing 10% FCS, 5×10^-5 M 2-mercaptoethanol, 2 mM L-glutamine, 1% penicillin-streptomycin and 1 mM HEPES buffer (CM).
(§1) Mitogenic Assay: Human peripheral blood mononuclear cells (2×10^5) were incubated with pokeweed mitogen at a final concentration of 0.1 μg/mL or Concanavalin A at a final concentration of 1.0 μg/mL in 96 well flat-bottomed microtiter plates (Falcon 3072, Becton Dickinson). Compounds to be tested were added at the initiation of culture. The final volume was 0.2 mL. The cultures were incubated in 95% humidified air/5% CO2 at 37° C. for 2 days (Concanavalin A) or 6 days (Pokeweed mitogen). Eighteen hours before termination of the cultures, each well was pulsed with 1 μCi of [^3 H]-thymidine. Cells from individual wells were harvested onto glass fiber filter paper with an automated multi-sample harvester. Filters were placed in scintillation fluid (Universal Cocktail, ICN Radiochemicals, Irvin, Calif.) and the [^3 H]-thymidine incorporation, in counts per minute (cpm), was measured in a Packard Tri-carb 4640 Scintillation Counter.
Peripheral blood mononuclear cells from three individuals were cultured with an optimal concentration of pokeweed mitogen, a T-dependent B-cell mitogen, in the presence of increasing concentrations of (Z)-4',5'-didehydro-5'-deoxy-5'-fluoroadenosine. […] Similar studies were performed culturing human peripheral blood cells with an optimal concentration of Concanavalin A, a potent T-cell mitogen.

Assay [3] deals with murine splenic mononuclear cells. Description: Mitogenic assay: Concanavalin A stimulated proliferation ([3H]-thymidine incorporation) of murine splenic mononuclear cells. The assay is classed as cell-based, CD-1 mice.
Source text: Cells: Spleens and/or lymph nodes from a total of 16 individual outbred CD-1 mice (Charles River, Wilmington, Mass.) were asceptically removed, pooled, and single cell suspensions were made in Hank's Balanced Salt Solution (HBSS, calcium and magnesium free). Erythrocytes were lysed by treatment with Tris-buffered ammonium chloride (0.155M NH4 Cl, 0.0165M Tris, pH 7.2). Mononuclear cells were washed with HBSS and resuspended in Dulbecco's PBS and resuspended in RPMI 1640 containing 10% FCS, 5×10^-5 M 2mercaptoethanol, 2 mM L-glutamine, 1% penicillin-streptomycin and 1 mM HEPES buffer (CM).
as §1, with “Murine splenic” for “Human peripheral blood”, “(5×10^5)” for “(2×10^5)”, “with” for “with pokeweed mitogen at a final concentration of 0.1 μg/mL or”, “2.5” for “1.0”, “plates.” for “plates (Falcon 3072, Becton Dickinson).”, “days.” for “days (Concanavalin A) or 6 days (Pokeweed mitogen).”

Assay [4] has as its system anti-ovalbumin IgG. Description: In vivo immune response to T-dependent antigen (ovalbumin): serum anti-ovalbumin IgG by ELISA. As to conditions: for Anti-Ovalbumin Titer ± S.D.: ten days after immunization, dilution giving absorbance 0.750 at 405 nm. Also noted: species or system mice. On the procedure: In vivo immune response: Mice were radomly distributed by weight into 3 groups of ten. Dosing i.p. with Dulbecco's phosphate buffered saline (PBS) or (Z)-4',5'-didehydro-5'-deoxy-5'-fluoroadenosine (at 5 or 10 mg/Kg) dissolved in PBS was begun one day prior to immunization. Ovalbumin (Sigma, St. Louis, Mo.) at 2 mg/mL in PBS was emulsified in an equal volume of Freunds complete adjuvant and 50 μL, containing 50 μg ovalbumin, was injected into each footpad. Animals were dosed daily. Ten days after the immunization, the animals were bled for serum and sacrificed. Serum levels of anti-ovalbumin IgG were quantitated in an ELISA. Specifically, 100 μL of a 1% ovalbumin solution in Tris-bufferedsaline (TBS) (20 mM Tris, 500 mM NaCl, pH 7.5) was added to individual wells of a 96 well ELISA microtiter plate. The plate was incubated for 2 hours at room temperature and the wells were washed 3 times with TBS containing 0.05% Tween 20 (TBS-Tween). Dilutions of the serum samples in TBS-Tween (100 μL) were added to the wells, which were then incubated for one hour at room temperature. The plate was again washed 3 times with TBS-Tween. The wells were then incubated with 100 μL of a 1:1000 dilution of rabbit anti-mouse IgG labled with horse radish peroxidase (Bio-Rad, Richmond, Calif.) for one hour at room temperature. After washing 3 times with TBS-Tween, the wells were incubated with 100 μL of Bio-Rad peroxidase substrate [2,2'-azino-di-(3-ethyl-benzthiazoline sulfonate) in cocodylic acid buffer and hydrogen peroxide]. Absorbance at 405 nm was measured and the antibody titer was calculated from the linear regression curve of each serum sample and is reported as the log of the dilution which gave an absorbance reading of 0.750, unless otherwise indicated.

Consider `Nc1ncnc2c1ncn2[C@@H]1O/C(=C\F)[C@@H](O)[C@H]1O` [Compound A, (Z)-4',5'-didehydro-5'-deoxy-5'-fluoroadenosine], for which the activity at 1 µM in assay [1] (Homo sapiens, PBMC, 144 h, 1.0 μM, pokeweed mitogen 0.1 μg/mL, 6 days, read-out: Proliferation (% of Control) Pokeweed mitogen) is 50.9%; in assay [2] (Homo sapiens, PBMC, 48 h, 1.0 μM, Concanavalin A 1.0 μg/mL, 2 days, read-out: Proliferation (% of Control) Concanavalin A mitogen), 15.8%; in assay [3] (Mus musculus, 48 h, 1.0 μM, Concanavalin A 2.5 μg/mL, 2 days, read-out: Proliferation (% of Control) Concanavalin A mitogen), 28.6%. The activity at 10 µM in assay [1] (Homo sapiens, PBMC, 144 h, 10.0 μM, pokeweed mitogen 0.1 μg/mL, 6 days, read-out: Proliferation (% of Control) Pokeweed mitogen) came out at 19.7%; in assay [2] (Homo sapiens, PBMC, 48 h, 10.0 μM, Concanavalin A 1.0 μg/mL, 2 days, read-out: Proliferation (% of Control) Concanavalin A mitogen), 3.7%; in assay [3] (Mus musculus, 48 h, 10.0 μM, Concanavalin A 2.5 μg/mL, 2 days, read-out: Proliferation (% of Control) Concanavalin A mitogen), 17.9%. In addition, the activity at 0.001 µM in assay [1] (Homo sapiens, PBMC, 144 h, .001 μM, pokeweed mitogen 0.1 μg/mL, 6 days, read-out: Proliferation (% of Control) Pokeweed mitogen) turned out to be 97.4%; in assay [2] (Homo sapiens, PBMC, 48 h, .001 μM, Concanavalin A 1.0 μg/mL, 2 days, read-out: Proliferation (% of Control) Concanavalin A mitogen), 100%; in assay [3] (Mus musculus, 48 h, .001 μM, Concanavalin A 2.5 μg/mL, 2 days, read-out: Proliferation (% of Control) Concanavalin A mitogen), 96.3%. Besides, the activity at 0.01 µM in assay [1] (Homo sapiens, PBMC, 144 h, .01 μM, pokeweed mitogen 0.1 μg/mL, 6 days, read-out: Proliferation (% of Control) Pokeweed mitogen) amounted to 103%; in assay [2] (Homo sapiens, PBMC, 48 h, .01 μM, Concanavalin A 1.0 μg/mL, 2 days, read-out: Proliferation (% of Control) Concanavalin A mitogen), 101%; in assay [3] (Mus musculus, 48 h, .01 μM, Concanavalin A 2.5 μg/mL, 2 days, read-out: Proliferation (% of Control) Concanavalin A mitogen), 86%. The activity at 0.1 µM in assay [1] (Homo sapiens, PBMC, 144 h, .1 μM, pokeweed mitogen 0.1 μg/mL, 6 days, read-out: Proliferation (% of Control) Pokeweed mitogen) is 72.1%; in assay [2] (Homo sapiens, PBMC, 48 h, .1 μM, Concanavalin A 1.0 μg/mL, 2 days, read-out: Proliferation (% of Control) Concanavalin A mitogen), 66.4%; in assay [3] (Mus musculus, 48 h, .1 μM, Concanavalin A 2.5 μg/mL, 2 days, read-out: Proliferation (% of Control) Concanavalin A mitogen), 51.8%. Further, the “inhibition of pokeweed stimulated proliferation, in words” value in assay [1] (increasing concentrations) was “dose dependent inhibition”. The IC50 in assay [2] (PBMC, 48 h, human cells, Concanavalin A 1.0 μg/mL, 2 days, read-out: IC50, inhibition of Concanavalin A stimulated proliferation) amounted to 250 nM; in assay [3] (Mus musculus, 48 h, murine cells, Concanavalin A 2.5 μg/mL, 2 days, read-out: IC50, inhibition of Concanavalin A stimulated proliferation), 190 nM. Moreover, the “inhibition of Concanavalin A stimulated proliferation, in words” value is listed as “dose dependent inhibition” in assay [2] (human cells, increasing concentrations) and “dose dependent inhibition” in assay [3] (murine cells, increasing concentrations). Besides, the results for the “Anti-Ovalbumin Titer ± S.D.” value in assay [4] (5 mg/Kg i.p. daily) and in assay [4] (10 mg/Kg i.p. daily) were 550 ± 272 and 375 ± 124, respectively. For the same compound, in assay [4] (5 or 10 mg/Kg i.p. daily, in words), the “serum levels of anti-ovalbumin IgG compared to Controls” value is “significantly reduced”.
